In US20200345746A1, “Oxazine Derivative for Use in the Prevention of Alzheimer's Disease in at Risk Patents” (Novartis AG, priority 2016, published 2020):

Tests used:
[1] = off-target binding or activity
Aβ42 = experiment: Formic acid soluble Aβ42 in APP23 mouse forebrain; assay type: in vivo
Procedure: (§1) Frozen mouse forebrains were weighed and homogenized in 9 volumes (w/v) of ice-cold TBS-Complete (20 mM Tris-HCl pH 7.4, 137 mM NaCl, 1× Complete [Protease Inhibitor Cocktail Tablets: 1 836 145, Roche Diagnostics GmbH, Penzberg, Germany]) by sonication (90% duty cycle, output control 5, 40-55 pulses, [Sonifier 450, Branson]). After homogenization several 50 μl aliquots were prepared for analysis and were stored at −80° C.
(§2) Fifty microliter of forebrain homogenate was mixed with 116.6 μl 100% formic acid, resulting in a final formic acid concentration of 70%. Samples were stored on ice and vortexed every 5 minutes. For neutralization, 50 μl of the mixture were pipetted into a new tube, and 950 μl of 1 M Tris base, containing 1× Complete Protease inhibitor, was added. Tubes were stored at room temperature overnight and then centrifuged for 15 minutes at 14000 rpm in an Eppendorf Microzentrifuge at 4° C. From the top layer, 100 μl are removed and mixed with 100 μl of 3% Blocker A solution (part of the MesoScale assay kit). This sample was either directly applied to the assay plate (dilution 1:1332) or further diluted in 1% Blocker A solution.

total Aβ (40+42) = experiment: Formic acid soluble total Aβ (40+42) and Aβ42/40 ratio in APP23 mouse forebrain; assay type: in vivo
Procedure: as §1, §2

Aβ40 [2] = experiment: Aβ40 in APP23 mouse CSF; assay type: in vivo; settings: APP23 mice; for CSF Aβ40 Mean ± SEM: 6 months
Procedure: Mouse CSF samples (3 μl) was diluted with 57 μL 1% Blocker A (MSD) and 25 μl were applied to the assay plate.
CSF was collected from all mice at necropsy. Samples from the baseline group were stored for approximately 6 months, and analyzed together with the rest of the samples at the end of the study. […] The reason for the high baseline values is currently not known. It is hypothesized that this is an effect of long term storage, when dissociation of oligomeric forms of Aβ may lead to higher monomeric concentrations. CSF Aβ, more than Triton TX-100 solubilized Aβ from brain extracts, represents the steady-state concentration of soluble amyloid-β that directly responds to changes in Aβ generation.

Aβ40 [3] = experiment: 3-month dose-ranging study: Aβ40 in CSF; assay type: in vivo, human; settings: for Aβ40 % change from baseline, Mean (SD) / Aβ40 % change from baseline, Median: CSF, 3 months
From the text: This study is listed in ClinicalTrials.gov under the NCT02576639 Identifier code.
The primary purpose of this study was to expand on previous safety and tolerability data obtained over 2-week and 4-week duration in the first in human study and thereby allow initiation of future long-term efficacy trials in subjects at risk of AD. In addition, data relevant for Pharmacokinetic/Pharmacodynamic modeling was obtained in order to support dose selection decisions for future efficacy studies.
In the completed first-in-human and 3-month dose-ranging safety and tolerability clinical studies described in Examples 5 and 6, Aβ concentrations in CSF were obtained by means of lumbar punctures before the first dose (baseline) and respectively after 2 weeks and 3 months of multiple dosing. ApoE4 genotype also was obtained in the subjects who consented. The percent change from baseline in Aβ40 and Aβ42 concentrations was calculated in subjects who took the study treatment and had no major protocol deviation with potential impact on the evaluation of the pharmacodynamic effect. Tables 18 to 21 below provide summary statistics of the percent change from baseline by treatment group and ApoE genotype (E4 heterozygotes versus E4 non-carriers). Only one subject with CSF data was E4 homozygote (from the 3-month dose-ranging safety and tolerability study).

Aβ40 [4] = experiment: Acute PK/PD in APOE4-TR mice: Aβ40 in CSF; assay type: in vivo, mouse; settings: for Average Aβ40 CSF ± SD: n = 6
Procedure: Compound 1 was formulated as a suspension. Vehicle or compound was given by oral administration in a volume of 10 ml/kg once. Vehicle: 0.1% Tween80 in 0.5% Methylcellulose in water.
Analysis of Aβ40 in Mouse Brain and Aβ40 and Aβ42 in CSF

[5] = 3-month dose-ranging study: plasma pharmacokinetics (Cmax,ss); assay type: in vivo, human; settings: Day 91, 85 mg qd.
Aβ40 [6] = experiment: Formic acid soluble Aβ40 in APP23 mouse forebrain; assay type: in vivo
Procedure: as §1, §2

## C[C@@]1(c2nc(NC(=O)c3ncc(C(F)(F)F)cc3Cl)ccc2F)CO[C@@](C)(C(F)(F)F)C(N)=N1 [Compound 1, N-(6-((3R,6R)-5-amino-3,6-dimethyl-6-(trifluoromethyl)-3,6-dihydro-2H-1,4-oxazin-3-yl)-5-fluoropyridin-2-yl)-3-chloro-5-(trifluoromethyl)picolinamide]
[1]
  off-target binding or activity: no relevant off-target binding or activity
Aβ42; APP23, 0.03 g/kg vs vehicle
  Formic acid soluble Aβ42 change vs vehicle: −16.3%
Aβ42; APP23, 0.3 g/kg vs vehicle
  Formic acid soluble Aβ42 change vs vehicle: −86.2%
Total Aβ (40+42); APP23, 0.03 g/kg vs vehicle
  Formic acid soluble Total Aβ change vs vehicle: −17.9%
Total Aβ (40+42); APP23, 0.3 g/kg vs vehicle
  Formic acid soluble Total Aβ change vs vehicle: −79.8%
Total Aβ (40+42); APP23, high dose
  reduction of deposited Aβ40 and Aβ42 vs vehicle: around 80%
Total Aβ (40+42); APP23, low dose
  reduction of deposited Aβ40 and Aβ42 compared to vehicles: around 17%
Aβ40 [2]; 0.03 g/kg food
  CSF Aβ40 Change vs vehicle: −8.6%
  CSF Aβ40 Mean ± SEM: 31.2 ± 2.11 ng/mL
Aβ40 [2]; 0.3 g/kg food
  CSF Aβ40 Change vs vehicle: −54.3%
  CSF Aβ40 Mean ± SEM: 15.6 ± 1.8 ng/mL
Aβ40 [3]; 2 mg, E4 heterozygotes
  Aβ40 % change from baseline, Mean (SD): −21 (11) %
  Aβ40 % change from baseline, Median: −18%
Aβ40 [3]; 2 mg, E4 non-carriers
  Aβ40 % change from baseline, Mean (SD): −24 (9) %
  Aβ40 % change from baseline, Median: −22%
Aβ40 [3]; 10 mg, E4 heterozygotes
  Aβ40 % change from baseline, Mean (SD): −67 (7) %
  Aβ40 % change from baseline, Median: −64%
Aβ40 [3]; 10 mg, E4 non-carriers
  Aβ40 % change from baseline, Mean (SD): −64 (6) %
  Aβ40 % change from baseline, Median: −65%
Aβ40 [3]; 35 mg, E4 heterozygotes
  Aβ40 % change from baseline, Mean (SD): −84 (3) %
  Aβ40 % change from baseline, Median: −85%
Aβ40 [3]; 35 mg, E4 non-carriers
  Aβ40 % change from baseline, Mean (SD): −82 (5) %
  Aβ40 % change from baseline, Median: −83%
Aβ40 [3]; 85 mg, E4 heterozygotes
  Aβ40 % change from baseline, Mean (SD): −91 (0) %
  Aβ40 % change from baseline, Median: −91%
Aβ40 [3]; 85 mg, E4 non-carriers
  Aβ40 % change from baseline, Mean (SD): −91 (2) %
  Aβ40 % change from baseline, Median: −90%
Aβ40 [3]; first-in-human (2 weeks) and 3-month studies
  difference in CSF Aβ40 and Aβ42 response between ApoE4 carriers and non-carriers: no difference in CSF Aβ40 and Aβ42 response to treatment
Aβ40 [3]; healthy elderly subjects, once-daily dosing
  PD steady-state (Aβ lowering) reached after: 2-3 weeks
Aβ40 [3]; month 3, 2 mg QD
  Aβ40 in CSF percent change from baseline, Difference (90% CI) Cmpd 1-Placebo: −19.87 (−23.09, −16.65) %
  Aβ40 in CSF percent change from baseline, LSmean (SE): −22.66 (1.355) %
Aβ40 [3]; month 3, 10 mg QD
  Aβ40 in CSF percent change from baseline, Difference (90% CI) Cmpd 1-Placebo: −60.18 (−63.43, −56.92) %
  Aβ40 in CSF percent change from baseline, LSmean (SE): −62.96 (1.388) %
Aβ40 [3]; month 3, 35 mg QD
  Aβ40 in CSF percent change from baseline, Difference (90% CI) Cmpd 1-Placebo: −80.41 (−83.59, −77.22) %
  Aβ40 in CSF percent change from baseline, LSmean (SE): −83.19 (1.325) %
Aβ40 [3]; month 3, 85 mg QD
  Aβ40 in CSF percent change from baseline, Difference (90% CI) Cmpd 1-Placebo: −87.62 (−90.93, −84.30) %
  Aβ40 in CSF percent change from baseline, LSmean (SE): −90.40 (1.429) %
Aβ40 [4]; 3 μmol/kg acute
  Mini AUEC (CSF Aβ40): 26%
Aβ40 [4]; 3 μmol/kg acute p.o., 4 h
  Average Aβ40 CSF ± SD: 0.1308 ± 0.06381 pmol/mL
Aβ40 [4]; 3 μmol/kg acute p.o., 24 h
  Average Aβ40 CSF ± SD: 0.1402 ± 0.07911 pmol/mL
Aβ40 [4]; 3 μmol/kg acute, 4 h
  % reduction vs vehicle (CSF Aβ40): 28%
Aβ40 [4]; 3 μmol/kg acute, 24 h
  % reduction vs vehicle (CSF Aβ40): 23%
Aβ40 [4]; 10 μmol/kg acute
  Mini AUEC (CSF Aβ40): 37%
Aβ40 [4]; 10 μmol/kg acute p.o., 4 h
  Average Aβ40 CSF ± SD: 0.07527 ± 0.03356 pmol/mL
Aβ40 [4]; 10 μmol/kg acute p.o., 24 h
  Average Aβ40 CSF ± SD: 0.1565 ± 0.08348 pmol/mL
Aβ40 [4]; 10 μmol/kg acute, 4 h
  % reduction vs vehicle (CSF Aβ40): 59%
Aβ40 [4]; 10 μmol/kg acute, 24 h
  % reduction vs vehicle (CSF Aβ40): 14%
Aβ40 [4]; 30 μmol/kg acute
  Mini AUEC (CSF Aβ40): 77%
Aβ40 [4]; 30 μmol/kg acute p.o., 4 h
  Average Aβ40 CSF ± SD: 0.02533 ± 0.01093 pmol/mL
Aβ40 [4]; 30 μmol/kg acute p.o., 24 h
  Average Aβ40 CSF ± SD: 0.06083 ± 0.03445 pmol/mL
Aβ40 [4]; 30 μmol/kg acute, 4 h
  % reduction vs vehicle (CSF Aβ40): 86%
Aβ40 [4]; 30 μmol/kg acute, 24 h
  % reduction vs vehicle (CSF Aβ40): 67%
[5]
  Cmax, ss, Mean: 602 ng/mL
Aβ40 [6]; APP23, 0.03 g/kg vs vehicle
  Formic acid soluble Aβ40 change vs vehicle: −18.1%
Aβ40 [6]; APP23, 0.3 g/kg vs vehicle
  Formic acid soluble Aβ40 change vs vehicle: −79.2%
